For two compounds, Ki, pKi and residual activity results are on record in ChEMBL document CHEMBL4507288 (2021).

The target in assay [1] is 5-hydroxytryptamine receptor 1B (Homo sapiens, UniProt P28222). The experiment in a line: GPCRScan assay: inhibition of 5-HT1B. On the set-up: radioligand conc. used [nm] 0.6 – 1.5, parental cells stable HEK.
Assay [2] deals with 5-hydroxytryptamine receptor 1D (Homo sapiens, UniProt P28221). As to the kind of experiment: GPCRScan assay: inhibition of 5-HT1D. More on the design: radioligand conc. used [nm] 1.0 – 2.0, parental cells HEKT.
The target in assay [3] is Sodium-dependent dopamine transporter (Homo sapiens, UniProt Q01959). As to the kind of experiment: GPCRScan assay: inhibition of DAT. More on the design: radioligand conc. used [nm] 3.6 – 16.0, parental cells stable HEK.
Sequence of Sodium-dependent dopamine transporter (Q01959 whole entry): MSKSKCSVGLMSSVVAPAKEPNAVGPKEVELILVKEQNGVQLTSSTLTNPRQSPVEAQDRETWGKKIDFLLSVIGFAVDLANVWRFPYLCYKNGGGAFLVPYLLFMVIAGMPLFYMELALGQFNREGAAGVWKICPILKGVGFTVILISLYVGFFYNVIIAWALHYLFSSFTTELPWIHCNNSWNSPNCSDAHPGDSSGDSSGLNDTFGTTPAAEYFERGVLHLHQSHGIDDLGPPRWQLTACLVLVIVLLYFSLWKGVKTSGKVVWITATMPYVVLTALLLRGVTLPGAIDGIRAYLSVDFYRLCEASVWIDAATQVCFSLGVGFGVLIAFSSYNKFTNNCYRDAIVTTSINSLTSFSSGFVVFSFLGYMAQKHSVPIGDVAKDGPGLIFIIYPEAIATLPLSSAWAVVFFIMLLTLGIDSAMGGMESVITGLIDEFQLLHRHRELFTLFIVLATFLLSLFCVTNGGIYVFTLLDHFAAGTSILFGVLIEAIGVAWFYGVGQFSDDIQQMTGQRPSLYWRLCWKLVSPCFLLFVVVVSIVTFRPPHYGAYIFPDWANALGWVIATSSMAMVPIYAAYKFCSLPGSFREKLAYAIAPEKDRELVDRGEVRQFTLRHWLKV
Assay [4] has as its target Tyrosine-protein kinase ABL2 (Homo sapiens) (UniProt P42684). The following applies: Compound concentration 1000.0 nM.
In assay [5] the target is RAC-alpha serine/threonine-protein kinase (Homo sapiens) (UniProt P31749). The following applies: Compound concentration 1000.0 nM.
Assay [6] deals with ALK tyrosine kinase receptor (Homo sapiens), Q9UM73 [C1156Y]. The following applies: Compound concentration 1000.0 nM.
Assay [7] addresses Tyrosine-protein kinase receptor UFO (Homo sapiens) (UniProt P30530). The conditions noted are these: Compound concentration 1000.0 nM.
Assay [8] concerns the target Calcium/calmodulin-dependent protein kinase type II subunit beta (Homo sapiens) (UniProt Q13554). The conditions noted are these: Compound concentration 1000.0 nM.
Assay [9] addresses Cyclin-dependent kinase-like 1 (Homo sapiens) (UniProt Q00532). The conditions noted are these: Compound concentration 1000.0 nM.
Assay [10] deals with Cyclin-dependent kinase-like 2 (Homo sapiens) (UniProt Q92772). The conditions noted are these: Compound concentration 1000.0 nM.
For assay [11], the target named is Casein kinase I isoform gamma-2 (Homo sapiens) (UniProt P78368). The following applies: Compound concentration 1000.0 nM.
The target in assay [12] is Discoidin domain-containing receptor 2 (Homo sapiens) (UniProt Q16832). The following applies: Compound concentration 1000.0 nM.
The target of assay [13] is Serine/threonine-protein kinase MRCK gamma (Homo sapiens) (UniProt Q6DT37). The conditions noted are these: Compound concentration 1000.0 nM.
Assay [14] deals with Dual specificity tyrosine-phosphorylation-regulated kinase 1A (Homo sapiens) (UniProt Q13627). The following applies: Compound concentration 1000.0 nM.
Assay [15] relates to Epidermal growth factor receptor (Homo sapiens), P00533 [UNDEFINED MUTATION]. The following applies: Compound concentration 1000.0 nM.
Assay [16] concerns Epidermal growth factor receptor (Homo sapiens), P00533 [L858R]. The conditions noted are these: Compound concentration 1000.0 nM.
The target in assay [17] is Ephrin type-A receptor 3 (Homo sapiens) (UniProt P29320). The conditions noted are these: Compound concentration 1000.0 nM.
For assay [18], the target named is Ephrin type-A receptor 7 (Homo sapiens) (UniProt Q15375). The conditions noted are these: Compound concentration 1000.0 nM.
Sequence of Ephrin type-A receptor 7 (Homo sapiens) (Q15375 28-998 limits assumed): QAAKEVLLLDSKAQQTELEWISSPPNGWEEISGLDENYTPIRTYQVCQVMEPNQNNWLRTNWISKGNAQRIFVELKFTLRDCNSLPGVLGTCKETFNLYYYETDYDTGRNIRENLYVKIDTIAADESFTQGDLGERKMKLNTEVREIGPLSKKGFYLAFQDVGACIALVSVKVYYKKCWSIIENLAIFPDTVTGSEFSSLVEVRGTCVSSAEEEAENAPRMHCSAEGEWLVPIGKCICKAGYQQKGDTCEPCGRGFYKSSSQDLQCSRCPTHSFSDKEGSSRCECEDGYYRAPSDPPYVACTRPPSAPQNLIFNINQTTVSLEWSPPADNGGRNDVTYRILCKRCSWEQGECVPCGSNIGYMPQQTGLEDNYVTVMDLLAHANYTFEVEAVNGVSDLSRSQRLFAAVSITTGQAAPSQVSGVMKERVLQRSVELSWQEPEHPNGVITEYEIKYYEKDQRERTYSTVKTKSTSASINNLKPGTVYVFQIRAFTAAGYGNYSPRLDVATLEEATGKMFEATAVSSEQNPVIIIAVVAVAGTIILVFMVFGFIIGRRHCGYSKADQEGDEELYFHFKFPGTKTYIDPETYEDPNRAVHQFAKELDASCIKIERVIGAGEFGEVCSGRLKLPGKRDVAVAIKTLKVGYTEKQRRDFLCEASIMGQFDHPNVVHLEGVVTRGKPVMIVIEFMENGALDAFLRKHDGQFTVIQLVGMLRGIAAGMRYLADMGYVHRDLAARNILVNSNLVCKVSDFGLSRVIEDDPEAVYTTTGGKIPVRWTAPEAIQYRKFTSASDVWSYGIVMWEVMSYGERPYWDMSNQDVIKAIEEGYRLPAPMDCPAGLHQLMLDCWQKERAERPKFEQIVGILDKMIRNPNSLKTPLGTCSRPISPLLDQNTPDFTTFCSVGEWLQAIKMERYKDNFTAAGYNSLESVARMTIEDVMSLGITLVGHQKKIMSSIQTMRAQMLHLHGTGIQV
Assay [19] has as its target Tyrosine-protein kinase Fes/Fps (Homo sapiens) (UniProt P07332). The conditions noted are these: Compound concentration 1000.0 nM.
Assay [20] has as its target Fibroblast growth factor receptor 2 (Homo sapiens) (UniProt P21802). The following applies: Compound concentration 1000.0 nM.
Assay [21] has as its system Receptor-type tyrosine-protein kinase FLT3 (Homo sapiens), P36888 [K663Q]. The following applies: Compound concentration 1000.0 nM.
The target of assay [22] is Beta-adrenergic receptor kinase 1 (Homo sapiens) (UniProt P25098). The following applies: Compound concentration 1000.0 nM.
Assay [23] deals with Inhibitor of nuclear factor kappa-B kinase subunit beta (Homo sapiens) (UniProt O14920). The conditions noted are these: Compound concentration 1000.0 nM.
Assay [24] addresses Interleukin-1 receptor-associated kinase 4 (Homo sapiens) (UniProt Q9NWZ3). The conditions noted are these: Compound concentration 1000.0 nM.
Assay [25] addresses Tyrosine-protein kinase JAK2 (Homo sapiens) (UniProt O60674). The conditions noted are these: Compound concentration 1000.0 nM.
In assay [26] the target is Mitogen-activated protein kinase 9 (Homo sapiens) (UniProt P45984). The conditions noted are these: Compound concentration 1000.0 nM.
Sequence of Mitogen-activated protein kinase 9 (Homo sapiens) (P45984 whole entry, looked up): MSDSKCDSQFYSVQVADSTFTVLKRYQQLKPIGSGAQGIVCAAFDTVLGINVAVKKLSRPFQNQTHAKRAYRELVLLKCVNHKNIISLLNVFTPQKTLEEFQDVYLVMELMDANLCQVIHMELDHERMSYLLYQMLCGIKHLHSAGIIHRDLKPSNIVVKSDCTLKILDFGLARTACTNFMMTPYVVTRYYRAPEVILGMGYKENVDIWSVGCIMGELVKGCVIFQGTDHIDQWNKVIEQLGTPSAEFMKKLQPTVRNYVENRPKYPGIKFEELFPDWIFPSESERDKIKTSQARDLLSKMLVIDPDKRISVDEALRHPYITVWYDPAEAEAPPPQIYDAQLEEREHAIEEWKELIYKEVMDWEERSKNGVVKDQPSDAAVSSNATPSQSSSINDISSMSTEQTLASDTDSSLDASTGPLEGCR
For assay [27], the system named is Mast/stem cell growth factor receptor Kit (Homo sapiens), P10721 [A829P]. The conditions noted are these: Compound concentration 1000.0 nM.
Assay [28] relates to Leucine-rich repeat serine/threonine-protein kinase 2 (Homo sapiens), Q5S007 [G2019S]. The following applies: Compound concentration 1000.0 nM.
The target in assay [29] is Mitogen-activated protein kinase kinase kinase 13 (Homo sapiens) (UniProt O43283). The conditions noted are these: Compound concentration 1000.0 nM.
Sequence of Mitogen-activated protein kinase kinase kinase 13 (Homo sapiens) (O43283 whole entry): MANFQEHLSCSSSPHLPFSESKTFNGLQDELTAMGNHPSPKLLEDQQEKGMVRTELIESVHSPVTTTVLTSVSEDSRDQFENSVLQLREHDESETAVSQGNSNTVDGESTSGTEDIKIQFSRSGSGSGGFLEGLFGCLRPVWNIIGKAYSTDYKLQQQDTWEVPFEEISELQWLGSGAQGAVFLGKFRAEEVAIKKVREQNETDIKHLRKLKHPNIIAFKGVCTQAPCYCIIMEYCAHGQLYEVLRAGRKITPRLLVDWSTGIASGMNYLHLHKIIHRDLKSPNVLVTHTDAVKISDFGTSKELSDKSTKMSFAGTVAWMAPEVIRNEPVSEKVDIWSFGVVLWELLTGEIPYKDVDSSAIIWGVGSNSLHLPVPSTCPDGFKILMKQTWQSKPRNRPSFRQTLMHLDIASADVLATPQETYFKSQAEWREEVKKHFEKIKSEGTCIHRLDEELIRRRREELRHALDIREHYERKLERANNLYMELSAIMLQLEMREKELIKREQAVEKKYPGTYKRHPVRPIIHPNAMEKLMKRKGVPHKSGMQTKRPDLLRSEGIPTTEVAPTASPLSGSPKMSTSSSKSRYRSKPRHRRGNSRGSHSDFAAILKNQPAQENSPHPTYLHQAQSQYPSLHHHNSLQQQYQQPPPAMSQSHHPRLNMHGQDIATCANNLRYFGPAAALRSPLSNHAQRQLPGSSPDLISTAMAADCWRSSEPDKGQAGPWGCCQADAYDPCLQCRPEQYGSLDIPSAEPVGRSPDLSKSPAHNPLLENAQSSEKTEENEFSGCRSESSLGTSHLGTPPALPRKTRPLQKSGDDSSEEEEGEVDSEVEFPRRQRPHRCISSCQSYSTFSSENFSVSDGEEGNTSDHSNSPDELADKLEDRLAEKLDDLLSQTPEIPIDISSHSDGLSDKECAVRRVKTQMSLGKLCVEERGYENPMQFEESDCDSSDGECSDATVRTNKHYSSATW
Assay [30] concerns the target Dual specificity mitogen-activated protein kinase kinase 7 (Homo sapiens) (UniProt O14733). The following applies: Compound concentration 1000.0 nM.
Assay [31] addresses Serine/threonine-protein kinase Nek2 (Homo sapiens) (UniProt P51955). The following applies: Compound concentration 1000.0 nM.
Assay [32] deals with Serine/threonine-protein kinase PAK 4 (Homo sapiens) (UniProt O96013). The conditions noted are these: Compound concentration 1000.0 nM.
Assay [33] has as its target Platelet-derived growth factor receptor alpha (Homo sapiens) (UniProt P16234). The following applies: Compound concentration 1000.0 nM.
The target of assay [34] is Cyclin-dependent kinase 15 (Homo sapiens) (UniProt Q96Q40). The conditions noted are these: Compound concentration 1000.0 nM.
The target of assay [35] is Phosphorylase b kinase gamma catalytic chain, skeletal muscle/heart isoform (Homo sapiens) (UniProt Q16816). The conditions noted are these: Compound concentration 1000.0 nM.
Assay [36] deals with Phosphatidylinositol 4,5-bisphosphate 3-kinase catalytic subunit alpha isoform (Homo sapiens), P42336 [E545A]. The conditions noted are these: Compound concentration 1000.0 nM.
Assay [37] addresses Serine/threonine-protein kinase pim-3 (Homo sapiens) (UniProt Q86V86). The following applies: Compound concentration 1000.0 nM.
Assay [38] deals with Serine/threonine-protein kinase PLK1 (Homo sapiens) (UniProt P53350). The conditions noted are these: Compound concentration 1000.0 nM.
The target in assay [39] is Serine/threonine-protein kinase PLK2 (Homo sapiens) (UniProt Q9NYY3). The following applies: Compound concentration 1000.0 nM.
Assay [40] addresses Serine/threonine-protein kinase SIK3 (Homo sapiens) (UniProt Q9Y2K2). The conditions noted are these: Compound concentration 1000.0 nM.
For assay [41], the target named is Receptor-interacting serine/threonine-protein kinase 1 (Homo sapiens) (UniProt Q13546). The conditions noted are these: Compound concentration 1000.0 nM.
For assay [42], the target named is TRAF2 and NCK-interacting protein kinase (Homo sapiens) (UniProt Q9UKE5). The following applies: Compound concentration 1000.0 nM.
Assay [43] concerns the target Serine/threonine-protein kinase ULK2 (Homo sapiens) (UniProt Q8IYT8). The following applies: Compound concentration 1000.0 nM.
Assay [44] deals with Serine/threonine-protein kinase WNK2 (Homo sapiens) (UniProt Q9Y3S1). The following applies: Compound concentration 1000.0 nM.
Assay [45] has as its target Serine/threonine-protein kinase 32C (Homo sapiens) (UniProt Q86UX6). The following applies: Compound concentration 1000.0 nM.

Structures are written as SMILES.

Sequence of Calcium/calmodulin-dependent protein kinase type II subunit beta (Homo sapiens) (Q13554 whole entry): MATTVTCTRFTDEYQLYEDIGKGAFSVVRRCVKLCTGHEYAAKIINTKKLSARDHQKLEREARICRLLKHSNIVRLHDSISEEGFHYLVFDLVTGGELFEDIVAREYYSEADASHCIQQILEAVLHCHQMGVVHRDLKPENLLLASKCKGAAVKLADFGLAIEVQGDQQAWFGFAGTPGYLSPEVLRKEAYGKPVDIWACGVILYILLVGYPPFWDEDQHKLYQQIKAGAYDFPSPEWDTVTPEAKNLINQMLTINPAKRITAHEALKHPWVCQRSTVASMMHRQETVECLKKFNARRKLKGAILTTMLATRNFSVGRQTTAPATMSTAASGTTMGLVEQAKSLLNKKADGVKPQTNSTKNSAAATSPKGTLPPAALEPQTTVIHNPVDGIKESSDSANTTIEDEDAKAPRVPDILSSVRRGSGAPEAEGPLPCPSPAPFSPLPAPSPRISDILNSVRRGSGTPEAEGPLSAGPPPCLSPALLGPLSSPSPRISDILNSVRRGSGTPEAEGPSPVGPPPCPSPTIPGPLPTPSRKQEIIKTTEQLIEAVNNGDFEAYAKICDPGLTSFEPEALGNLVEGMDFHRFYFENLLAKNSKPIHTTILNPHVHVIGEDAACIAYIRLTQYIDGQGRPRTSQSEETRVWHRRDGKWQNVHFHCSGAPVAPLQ
Sequence of Tyrosine-protein kinase JAK2 (Homo sapiens) (O60674 whole entry): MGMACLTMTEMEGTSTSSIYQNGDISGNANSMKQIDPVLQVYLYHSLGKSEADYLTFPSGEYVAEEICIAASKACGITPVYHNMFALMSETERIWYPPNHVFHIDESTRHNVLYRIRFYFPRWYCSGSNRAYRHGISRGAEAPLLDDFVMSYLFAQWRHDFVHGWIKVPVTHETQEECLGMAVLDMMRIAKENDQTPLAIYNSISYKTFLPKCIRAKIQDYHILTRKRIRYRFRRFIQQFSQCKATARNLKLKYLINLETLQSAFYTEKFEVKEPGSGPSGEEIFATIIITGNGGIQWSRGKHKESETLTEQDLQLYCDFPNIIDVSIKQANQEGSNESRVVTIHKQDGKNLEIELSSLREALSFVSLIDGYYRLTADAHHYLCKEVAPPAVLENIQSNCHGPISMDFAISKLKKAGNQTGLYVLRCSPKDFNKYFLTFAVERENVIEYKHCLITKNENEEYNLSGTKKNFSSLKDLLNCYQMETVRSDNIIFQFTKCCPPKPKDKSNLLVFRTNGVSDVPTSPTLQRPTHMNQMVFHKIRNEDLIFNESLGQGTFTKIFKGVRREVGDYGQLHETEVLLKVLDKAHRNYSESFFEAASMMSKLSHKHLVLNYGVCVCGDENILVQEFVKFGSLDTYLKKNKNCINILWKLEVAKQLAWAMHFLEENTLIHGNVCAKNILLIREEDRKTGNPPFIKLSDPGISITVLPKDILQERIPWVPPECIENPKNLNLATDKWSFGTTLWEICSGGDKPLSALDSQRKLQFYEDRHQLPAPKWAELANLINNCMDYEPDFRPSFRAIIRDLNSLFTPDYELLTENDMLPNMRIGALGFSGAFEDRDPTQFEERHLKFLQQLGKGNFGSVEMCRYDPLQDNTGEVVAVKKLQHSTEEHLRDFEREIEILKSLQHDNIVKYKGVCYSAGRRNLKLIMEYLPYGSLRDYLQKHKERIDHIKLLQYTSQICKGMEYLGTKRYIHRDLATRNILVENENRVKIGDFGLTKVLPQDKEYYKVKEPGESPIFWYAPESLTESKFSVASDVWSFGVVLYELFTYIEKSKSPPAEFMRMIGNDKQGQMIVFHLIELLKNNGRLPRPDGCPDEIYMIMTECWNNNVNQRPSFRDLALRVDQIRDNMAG

As for `CC(C)(C)OC(=O)N1CCCC1CNC1CCC(c2cc(F)ccc2F)(S(=O)(=O)c2ccc(Cl)cc2)CC1` (stereo unspecified) [GSI-NC], the Ki is 946 nM in assay [1], 234 nM in assay [2] and 10000 nM in [3]. For the same compound, in assay [3], the pKi worked out at 5.

Take `O=S(=O)(NC1CCC(c2cc(F)ccc2F)(S(=O)(=O)c2ccc(Cl)cc2)CC1)C(F)(F)F` (stereo unspecified) [MRK-560]: the residual activity in assay [4] is 100%; in assay [5], 5%; in [6], 100%; in [7], 100%; in assay [8], 97%; in assay [9], 100%. Further, the residual activity in assay [10] is 100%; in assay [11], 99%; in assay [12], 100%; in [13] it was 100%; in assay [14] it was 78%; in [15] it was 0%. In addition, the residual activity was 100% in assay [16]; 100% in assay [17]; 100% in assay [18]; 88% in assay [19]; 84% in assay [20]; 97% in assay [21]. Further, the residual activity in assay [22] is 73%; in [23] it was 93%; in [24] it was 97%; in [25] it was 83%; in assay [26], 73%; in assay [27], 100%. Further, the residual activity was 100% in [28]; 91% in assay [29]; 100% in assay [30]; 98% in [31]; 100% in assay [32]; 100% in assay [33]. Besides, the residual activity was 100% in [34]; 80% in [35]; 95% in assay [36]; 100% in [37]; 100% in [38]; 100% in assay [39]. In addition, the residual activity in assay [40] is 100%; in assay [41], 100%; in [42] it was 82%; in assay [43], 100%; in [44], 77%; in assay [45], 100%.

As usually defined, the Ki is the equilibrium dissociation constant of an inhibitor or competing ligand from its target. As usually defined, the pKi is the negative decadic logarithm of the Ki, by convention in mol/L.
